Source: US5130253A, “DNAs Encoding mosquito oostatic hormones” (University of Florida, priority 1991, dated 1992)
Where no end group is shown, it is not given here.

Columns and labels:
Aedes aegypti [1] = assay: Inhibition of egg (ovarian) development after injection into blood-fed females; assay type: in vivo; settings: for Inhibition of egg development / Yolk length: 24 hours; for Effect compared with natural, purified oostatic hormone: injection
Protocol: (§1) Female insects were injected with 0.5 μl to 1.0 μl hormone solution
(§2) of analog 1 or saline and analyzed 24 hours later for egg development.
(§3) The insects were evaluated for the effect of oostatic hormone 24 hours after injecting the hormone by dissecting out the ovaries and measuring the yolk in each follicle, or by dissecting out the midgut and determining trypsin biosynthesis as was described by Borovsky, D. (1988), Arch. Insect Biochem. Physiol. 8:249-260. We believe that we have discovered an effective method that can interfere with the biosynthesis of serine esterases (trypsinlike or chymotrypsinlike enzymes) in the midgut of insects.
(§4) (a) Female Aedes aegypti were fed blood on a chicken, lightly anesthetized with ether, and immediately injected with different concentrations (1 to 5 μg; 0.25 to 0.5 μl) of synthetic analogs of oostatic hormone (1 and 2). […] Twenty-four hours after the injection of oostatic hormone analogs, or water as a control, egg development and trypsinlike enzyme biosynthesis was determined (Borovsky, D. (1988), Arch, Ins. Biochem. Physiol. 7:187-210). (See Table 2)
Groups of female Aedes aegypti were injected with 0.5 to 0.25 μl of
oostatic hormone analogs, or with 0.5 μl of water as control.

Aedes aegypti [2] = assay: Toxicity (mortality) of injected mosquitoes; assay type: in vivo; settings: 1 to 5 μg injected in 0.25 to 0.5 μl
Protocol: as §4

houseflies = assay: Topical application in DMSO; assay type: in vivo; settings: 10 to 20 μg topically in 1 to 10 μl of DMSO; 24 hours after treatment
Protocol: (§5) (b) Another procedure was to dissolve oostatic hormone analogs (1) or (2) in a solvent that might facilitate transport through the cuticular barrier into hemolymph. Dimethylsulfoxide was used and 10 to 20 μg of (1) or (2) was applied topically to houseflies and stableflies in 1 to 10 μl of DMSO.

stableflies = assay: Topical application in DMSO; assay type: in vivo; settings: 10 to 20 μg topically in 1 to 10 μl of DMSO; 24 hours after treatment
Protocol: as §5

[3] = system: trypsinlike enzymes biosynthesis; assay: Inhibition of trypsinlike enzyme biosynthesis in the midgut after injection; assay type: in vivo, Aedes aegypti; settings: 2.86 nmol injected; 24 hours later
Protocol: as §1, §2, §3, §4

Anopheles albimanus = assay: Inhibition of ovarian development after injection; assay type: in vivo; settings: 1.83 nmol injected; 24 hours later
Protocol: as §1, §2, §3

Culex quinquefasciatus = assay: Inhibition of ovarian development after injection; assay type: in vivo; settings: 3.6 nmol injected; 24 hours later
Protocol: as §1, §2, §3

Lutzomyia anthophora = assay: Inhibition of ovarian development after injection; assay type: in vivo; settings: 0.477 nmol injected; 24 hours later
Protocol: as §1, §2, §3

[4] = system: trypsinlike enzymes biosynthesis; assay: Inhibition of trypsin synthesis after injection; assay type: in vivo, Lutzomyia anthophora; settings: 0.477 nmol injected; 24 hours later
Protocol: as §1, §2, §3

[5] = system: trypsinlike enzymes biosynthesis; assay: Inhibition of trypsin synthesis after injection; assay type: in vivo, Stomoxys calcitrans; settings: 4.77 nmol injected; 24 hours later
Protocol: as §1, §2, §3

[6] = system: trypsinlike enzymes biosynthesis; assay: Inhibition of trypsin synthesis after injection; assay type: in vivo, Musca domestica; settings: 4.77 nmol injected; 24 hours later
Protocol: as §1, §2, §3

[7] = system: trypsinlike enzymes biosynthesis; assay: Inhibition of trypsin synthesis after injection; assay type: in vivo, Ctenocephalides felis (bouche); settings: 0.477 nmol injected; 24 hours later
Protocol: as §1, §2, §3

[8] = assay type: in vitro ADME, mosquito
Description: The structure of these peptides render them undigestible with known endopeptidases (i.e. proteolytic enzymes like trypsin, pronase, etc.). The peptides were not affected by 1% trifluoroacetic acid and were routinely purified using this acid on HPLC. DNA sequences encoding the peptides of the invention can be used as probes to locate the genes expressing these peptides.

Sequence: DYPAPPPPPP [analog 2, H2 NDYPAP6 COOH]
- Inhibition of egg development (Aedes aegypti [1]; 0.96 μg (0.92 nmol) injected): 62%
- Yolk length (Aedes aegypti [1]; 0.96 μg (0.92 nmol) injected): 102 ± 11 μm
- Inhibition of egg development (Aedes aegypti [1]; 1.92 μg (1.83 nmol) injected): 96%
- Yolk length (Aedes aegypti [1]; 1.92 μg (1.83 nmol) injected): 55 ± 11 μm
- Effect compared with natural, purified oostatic hormone (Aedes aegypti [1]): same effect as injection of natural, purified oostatic hormone
- Toxicity: death of injected mosquitoes (Aedes aegypti [2]): none of the injected mosquitoes died
- Activity (sterilization through inhibition of trypsin-like enzyme synthesis) (houseflies): Some evidence of activity
- Activity (sterilization through inhibition of trypsin-like enzyme synthesis) (stableflies): Some evidence of activity

Sequence: YDPAPPPPPP [analog 1, H2 NYDPAP6 COOH]
- Inhibition of ovarian development (Aedes aegypti [1]; 2.86 nmol injected, analyzed 24 hours later): 98%
- Inhibition of egg development (Aedes aegypti [1]; 1.20 μg (1.15 nmol) injected): 76%
- Yolk length (Aedes aegypti [1]; 1.20 μg (1.15 nmol) injected): 82 ± 3 μm
- Inhibition of egg development (Aedes aegypti [1]; 2.44 μg (2.33 nmol) injected): 98%
- Yolk length (Aedes aegypti [1]; 2.44 μg (2.33 nmol) injected): 53 ± 3 μm
- Effect compared with natural, purified oostatic hormone (Aedes aegypti [1]): same effect as injection of natural, purified oostatic hormone
- Inhibition of trypsin synthesis [3]: 86%
- Inhibition of ovarian development (Anopheles albimanus): 100%
- Inhibition of ovarian development (Culex quinquefasciatus): 91%
- Inhibition of ovarian development (Lutzomyia anthophora): 50%
- Inhibition of trypsin synthesis [4]: 30%
- Inhibition of trypsin synthesis [5]: 50%
- Inhibition of trypsin synthesis [6]: 85%
- Inhibition of trypsin synthesis [7]: 50%
- Toxicity: death of injected mosquitoes (Aedes aegypti [2]): none of the injected mosquitoes died
- Activity (sterilization through inhibition of trypsin-like enzyme synthesis) (houseflies): Some evidence of activity
- Activity (sterilization through inhibition of trypsin-like enzyme synthesis) (stableflies): Some evidence of activity
- Loss of activity on standing in mosquito homogenate [8]: without loss of activity
